How the values were obtained:
Test in all cases: normalised response (% of control), CellTox Green; higher = less cell death (100 = DMSO, 0 = benzethonium chloride kill control)
Details in all cases: incubation time: 72 h
BT-474 = tested on: BT-474
Outline: (§1)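 For each plate, 0.1 % DMSO was set to 100 and a positive kill control to 0. Breast cancer cell lines (20 µl suspension) were seeded into 384-well plates already holding compound at 5 concentrations in 10-fold steps over a 10,000-fold range chosen per compound, and incubated for 72 h. CellTox Green fluorescence at 485/520 nm was read before CellTiter-Glo luminescence, which followed 10 min at room temperature. Each value is the normalised signal at one concentration.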

BT-549 = tested on: BT-549
Outline: as §1

CAL-120 = tested on: CAL-120
Outline: as §1

CAL-148 = tested on: CAL-148
Outline: as §1

CAL-51 = tested on: CAL-51
Outline: as §1

CAL-85-1 = tested on: CAL-85-1
Outline: as §1

DU-4475 = tested on: DU-4475
Outline: as §1

HCC1143 = tested on: HCC1143
Outline: as §1

HCC1599 = tested on: HCC1599
Outline: as §1

HCC1937 = tested on: HCC1937
Outline: as §1

HDQ-P1 = tested on: HDQ-P1
Outline: as §1

Hs578T = tested on: Hs578T
Outline: as §1

MCF-10A = tested on: MCF-10A
Outline: as §1

MDA-MB-231 = tested on: MDA-MB-231
Outline: as §1

MDA-MB-436 = tested on: MDA-MB-436
Outline: as §1

MDA-MB-453 = tested on: MDA-MB-453
Outline: as §1

MDA-MB-468 = tested on: MDA-MB-468
Outline: as §1

MFM-223 = tested on: MFM-223
Outline: as §1

Structure (SMILES) | normalised response (BT-474) [%] | normalised response (BT-549) [%] | normalised response (CAL-120) [%] | normalised response (CAL-148) [%] | normalised response (CAL-51) [%] | normalised response (CAL-85-1) [%] | normalised response (DU-4475) [%] | normalised response (HCC1143) [%] | normalised response (HCC1599) [%] | normalised response (HCC1937) [%] | normalised response (HDQ-P1) [%] | normalised response (Hs578T) [%] | normalised response (MCF-10A) [%] | normalised response (MDA-MB-231) [%] | normalised response (MDA-MB-436) [%] | normalised response (MDA-MB-453) [%] | normalised response (MDA-MB-468) [%] | normalised response (MFM-223) [%]
CO[C@@H]1[C@H](N(C)C(=O)c2ccccc2)C[C@H]2O[C@]1(C)n1c3ccccc3c3c4c(c5c6ccccc6n2c5c31)C(=O)NC4 [Midostaurin] (1000 nM) | 83.7 | 54 | 91.7 | 67.4 | -37.7 | 92.1 | 87.7 | 63.8 | 74 | 52.8 | 93 | 64.2 | 93.8 | 61.2 | 77.3 | 107 | -9.58 | 78.8
C=CCn1c(=O)c2cnc(Nc3ccc(N4CCN(C)CC4)cc3)nc2n1-c1cccc(C(C)(C)O)n1 [MK1775] (1000 nM) | 68.6 | 74.9 | 79.1 | -11.1 | 17.8 | 25.9 | 87 | 103 | 67.4 | 103 | 48.7 | 71.9 | 64.5 | -98.4 | 29.9 | 93.3 | 56.5 | 68.5
Cc1cc(Nc2nc(N[C@@H](C)c3ncc(F)cn3)ncc2Cl)[nH]n1 [AZD1480] (1000 nM) | 95.3 | 88.9 | 87.1 | 85.8 | 69.4 | 109 | 98.2 | 97.3 | 99.3 | 69.3 | 69.3 | 71.7 | 98.9 | 76.7 | 105 | 105 | 84.2 | 41.5
CNC(=O)c1ccccc1Sc1ccc2c(/C=C/c3ccccn3)n[nH]c2c1 [Axitinib] (1000 nM) | 103 | 146 | 96.4 | 108 | 76 | 104 | 104 | 51.8 | 118 | 122 | 102 | 115 | 97.6 | 121 | 84.9 | 108 | 129 | 66.7
CNC(=O)c1ccccc1Sc1ccc2c(/C=C/c3ccccn3)n[nH]c2c1 [Axitinib] (10000 nM) | 99.4 | 90.9 | 92.5 | 22.8 | 40.2 | 75.7 | 108 | 103 | 118 | 91.2 | 58.1 | 119 | 93.8 | 96.8 | 89 | 111 | 156 | 97.7
O=C(CCCCCCC(=O)Nc1ccccc1)NO [Vorinostat] (10000 nM) | 32.6 | 74.8 | 36.3 | 45.5 | -6.76 | 51.7 | 76 | 42.1 | 81.9 | 84.3 | 103 | 60.6 | 98.4 | -55.1 | 77.5 | 82.7 | 25.7 | 80.3
CCNC(=O)c1noc(-c2cc(C(C)C)c(O)cc2O)c1-c1ccc(CN2CCOCC2)cc1 [NVP-AUY922] (100 nM) | 80 | 140 | 90.3 | 21.6 | 64.1 | 63.1 | 65.5 | 87.9 | 86.9 | 125 | 62.8 | 102 | 57.5 | 46.7 | 67.1 | 96.2 | 31.9 | 78.3
C=CCn1c(=O)c2cnc(Nc3ccc(N4CCN(C)CC4)cc3)nc2n1-c1cccc(C(C)(C)O)n1 [MK1775] (10000 nM) | 44.8 | 14.7 | 53.2 | 22.7 | 41.9 | 4.99 | 85.3 | 14.8 | 66.1 | 65.6 | 40.5 | 33.3 | -5.92 | -15.5 | 67.1 | 89.7 | 45 | 67.2
C/C(=C\c1csc(C)n1)[C@@H]1C[C@@H]2O[C@]2(C)CCC[C@H](C)[C@H](O)[C@@H](C)C(=O)C(C)(C)[C@@H](O)CC(=O)N1 [Ixabepilone] (1000 nM) | 58.1 | 62.7 | 99.3 | 100 | 33.8 | 14.6 | 101 | 120 | 104 | 92.4 | 96.2 | 115 | 101 | 55 | 103 | 101 | 87.1 | 105
CO[C@@H]1[C@H](N(C)C(=O)c2ccccc2)C[C@H]2O[C@]1(C)n1c3ccccc3c3c4c(c5c6ccccc6n2c5c31)C(=O)NC4 [Midostaurin] (10000 nM) | 87.9 | 25.2 | 80.8 | 66.4 | -24.3 | 97.5 | 88.6 | 91.4 | 81.2 | 91.9 | 55.3 | 21.1 | 93.3 | 60.6 | 83.6 | 91.6 | 0.55 | 93.1
